{"source": "patent US20060252683A1", "about": "“Preparation of a peptide compound (SYRAPRO-2000) and its use for the activation of protein phosphatase-2A1 enzyme” (priority 2005, published 2006)", "key": {"[1]": {"assay": "Dissolution of purified peptide in water", "type": "physicochemical", "description": "SYRAPRO-2000, a peptide compound activator of protein phosphatase-2A1 was prepared by chemical synthesis on an automated Solid Phase Peptide Synthesizer. Following synthesis, it was cleaved and purified by reverse phase HPLC on a C18 column. The structure of SYRAPRO-2000 is: […]. The molecular mass of SYRAPRO-2000 was determined by MALDI ToF MS. The purified material, a white solid was readily dissolved in and reconstituted in water at ˜1-2 mg/ml. For its use as an in vitro activator of protein phosphatase-2A1, it is dissolved in the assay buffer which consisted of 0.02 ml of enzyme solution in 50 mM Imidazole-Cl pH 7.2, 0.2 mM EGTA, 0.1% (v/v) 2-mercaptoethanol and 1 mg/ml bovine serum albumin. For its use on intact cells, it is dissolved in the culture medium."}, "protein phosphatase-2B": {"tested_on": "protein phosphatase-2B", "assay": "Protein phosphatase-2B assay", "type": "biochemical, pig", "details": "various concentrations", "description": "(§1) Protein phosphatase-1 (squares), protein phosphatase-2A1 (circles), protein phosphatase-2B (triangles) and protein phosphatase-2C (stars) were assayed in the presence of various concentrations of HIV-1 Vpr^71-96. 100 percent protein phosphatase activity is equivalent to 0.005 unit. Similar results were obtained in 3 independent experiments.\n(§2) ^32P-labeled phosphorylase a was prepared by phosphorylation of phosphorylase b with phosphorylase kinase as described in (Cohen 1988). ^32P-labeled casein was prepared by phosphorylation of casein with protein kinase A as described in (Tung 1986). Protein phosphatase-1 was purified from rabbit skeletal muscle as described in (Cohen 1988). Protein phosphatase-1 inhibitor-2 was purified from rabbit skeletal muscle as described in (Yang 1981). Protein phosphatase-2A0 and protein phosphatase-2A1 from pig brain and from pig liver were purified as described in (Tung 1985). Protein phosphatase-2A0 and protein phosphatase-2A1 from pig adipose tissue were highly purified by successive chromatography of pig subcutaneous adipose tissue extracts on DEAE Sepharose, Poly-L-lysine Agarose, Sephacryl S-300 HR and thiophosphorylase-a-Sepharose-4B as described in (Tung 1985). Protein phosphatase-2B was purified from pig brain as described in (Tung 1986). […]"}, "protein phosphatase-2C": {"tested_on": "protein phosphatase-2C", "assay": "Protein phosphatase-2C assay", "type": "biochemical, pig", "details": "various concentrations", "description": "as §1, §2"}}}
{"smiles": "CC[C@H](C)[C@H](NC(=O)[C@H](CCCNC(=N)N)NC(=O)[C@H](CO)NC(=O)[C@H](Cc1c[nH]cn1)NC(=O)[C@H](CCCNC(=N)N)NC(=O)[C@H](CS)NC(=O)CNC(=O)[C@@H](NC(=O)[C@H](CCCNC(=N)N)NC(=O)[C@H](Cc1ccccc1)NC(=O)[C@@H](N)Cc1c[nH]cn1)[C@@H](C)CC)C(=O)NCC(=O)N[C@H](C(=O)N[C@H](C(=O)N[C@@H](CCCNC(=N)N)C(=O)N[C@@H](CCC(N)=O)C(=O)N[C@@H](CCCNC(=N)N)C(=O)N[C@@H](CCCNC(=N)N)C(=O)N[C@@H](C)C(=O)N[C@@H](CCCNC(=N)N)C(=O)N[C@@H](CC(N)=O)C(=O)NCC(=O)N[C@@H](C)C(=O)N[C@@H](CO)C(=O)N[C@@H](CCCNC(=N)N)C(=O)N[C@@H](CO)C(=O)O)[C@@H](C)O)C(C)C", "note": "[SYRAPRO-2000]", "values": [{"measurement": "readily dissolved and reconstituted in water", "setting": "[1]", "result": "1 to 2", "unit": "mg/mL"}, {"measurement": "effect on activity of protein phosphatase-2B", "setting": "protein phosphatase-2B", "result": "negligible effect"}, {"measurement": "effect on activity of protein phosphatase-2C", "setting": "protein phosphatase-2C", "result": "negligible effect"}]}
